“And” between values parts separate entries of the source, which are not always exact repeats. Equal entries are not always repeated. Where two headings read alike, the source gives them in different places.
How the values were obtained:
Babesia duncani [1] = assay: Bug Box single-concentration screen, PI assay in 384-well plates; assay type: cell-based; details: read-out: Inhibition in Bug Box screen (hit definition)
Method: (§1) Prior to the removal of the culture(s) from the modular incubator, fresh A + blood was washed three times with PSG +and compounds (in DMSO stocks) to be tested were prepared in a 96-well plate by serial dilution in cDMEM. Once prepared, the culture(s) were removed from the modular incubator, collected, and washed once with 7 mL of cDMEM. A 10% hematocrit, 5% parasitemia stock in cDMEM was made, and 25 µL aliquoted into a 384-well plate with constant agitation, followed by 25 µL of compound dilution (quadruplicates). The positive growth control was given 25 µL of 0.5% dimethyl sulfoxide (DMSO) in cDMEM (final 0.25% DMSO), and the negative growth control was 25 µL of 50 µM WR99210 (0.5% DMSO) (final 25 µM WR99210, 0.25% DMSO). Plates were incubated as previously described, smears of the positive growth control were made, and the plates were read as previously described. Smears were stained by Giemsa, and a minimum of 1,000 RBCs were counted to determine parasitemia. Dose-response assays were repeated twice.
The Bug Box is a collection of 40 compounds with known antimicrobial and/or bioactivity, which was provided by the Structural Genomics Consortium (SGC)-Toronto. The full list of compounds is available in the supplement. They were obtained in 10 mM aliquots and screened in 384-well plates at 1 µM and 5 µM dilutions with four technical replicates per dilution. Hits were defined as those compounds with at least 80% inhibition. Hits were validated by dose-response curves using commercially obtained compounds with verified purity. The only exception to this was in the verification of compound M7, which is a proprietary compound that could be obtained only from SGC-Toronto. Dose-response curves were created from two independent experiments, each with nine dilutions of the drug.

Babesia duncani [2] = assay: Propidium iodide-based in vitro dose-response assay, B. duncani-infected red blood cells, 384-well plates; assay type: cell-based; details: for EC90: read-out: EC90 (95% CI)
Method: Frozen stocks of B. duncani were provided by the Ben Mamoun lab at Yale University. Culture maintenance was undertaken as described by Singh et al^18 with the following adaptations: Media, completed DMEM/F12 (cDMEM; 20% heat-inactivated fetal bovine serum (Sigma-Aldrich catalogue #12,306 C-500ML), 1 x HT media supplement (Sigma-Aldrich catalogue # H0137-10VL), 1 x L-glutamine (Gibco, catalogue # 25030–081), 1 x antibiotic-antimycotic (Gibco catalogue #15240–062), and 1 x gentamicin (Gibco catalogue #15710–072)), was changed every other day and cultures were kept in a modular incubator gassed with 2% O2, 5% CO2, 93% N2 at 37°C. Passage occurred once a week into fresh blood at 1%–2% parasitemia, 5% hematocrit, and fresh A + blood was obtained once a week from the University of Vermont Medical Center Blood Bank. Four days before the start of drug assay testing, a 10 mL, 5% hematocrit culture was infected to 2% parasitemia with Babesia duncani. One day before the start, the media was changed, and parasitemia was assessed by light microscopy examination of Giemsa-stained thin blood smears with a minimum of 500 red blood cells counted.
Fresh A + blood was washed three times, and a stock 10% hematocrit (HCT) solution of uninfected red cells in completed F12/DMEM media (cDMEM) was created. In a 96-well plate, a pellet from a vigorously growing (≥20% parasitemia) culture was used to create a 10% hematocrit starting well that was then serially diluted five times with the stock 10% hematocrit solution. 25 µL of each serial dilution was transferred to a white, clear-bottom 384-well plate (Falcon, catalog #353963) in triplicate before 25 µL of cDMEM was added to each well, followed by 25 µL of 0.6% Triton-X, 22.5 µM PI in phosphate-buffered solution. The 384-well plate was then shaken for 30 seconds, incubated at 37°C for 1 hour (in the dark), then moved to room temperature in the dark. After 24 hours, the plate was read using a Synergy H1 (BioTek, Winooski, VT) with excitation = 535 nm, emission = 615 nm, sensitivity = 150, and readings taken from the bottom of the wells. Blood smears were made from select undiluted starting wells and stained with Giemsa, and parasitemia was calculated manually from a minimum of 1,000 counted red blood cells. The experiment was repeated twice.
as §1
Pilot dose-response experiments were performed using WR99210 (a DHFR inhibitor with known effect on Babesia duncani), DMSO vehicle, and standard of care drugs atovaquone, clindamycin, quinine, and azithromycin ([20]).
The positive growth control was treated with 25 µL of 0.5% dimethyl sulfoxide (DMSO) in cDMEM (final 0.25% DMSO), and the negative growth control with 25 µL of 50 µM WR99210 (0.5% DMSO) (final 25 µM WR99210, 0.25% DMSO). The plate was incubated for 48 hours and then the plate was stained and read as previously described.

Babesia duncani [3] = details: cited from earlier work
HCT8 cells = assay: Cytotoxicity on confluent monolayer HCT8 cells (Promega CellTiter Aqueous One MTS assay); assay type: cell-based, human; details: 48 hours, highest final concentration 100 µM, two replicate experiments
Method: Human HCT8 cells were grown in tissue culture flasks until a confluent monolayer was achieved. […] Cells were incubated with the drug for 48 hours. Promega CellTiter Aqueous One Solution Cell Proliferation Assay (MTS) (PRG3580) was commercially obtained and used to ascertain cell viability, with […] measured using a Biotek microplate reader. Cells incubated in 0.5% DMSO served as a positive growth control and comparator arm.

B. divergens = tested on: B. divergens; design: method as in earlier work; details: ref 35 (Vanheer et al.); cited from earlier work
[4] = cited from earlier work
[5] = design: method as in PMID 22553374; details: oral, 28-day, once-daily dosing study in humans; cited from earlier work
[6] = Cytotoxicity on confluent monolayer HCT8 cells (Promega CellTiter Aqueous One MTS assay); assay type: cell-based; details: human HCT8 cells
solid tumor cells = tested on: solid tumor cells; design: method as in PMID 19344997; details: cited from earlier work
liquid tumor cell lines = tested on: liquid tumor cell lines; design: method as in PMID 19344997; details: cited from earlier work
normal cells = tested on: normal cells; design: method as in PMID 19344997; details: cited from earlier work
malignant cells = tested on: malignant cells; design: method as in PMID 19344997; details: malignant cells treated; cited from earlier work
[7] = tested on: normal cell lines (human mammary and renal epithelial cells, among others); design: method as in PMID 19344997; details: cited from earlier work
P. falciparum = tested on: P. falciparum; design: method as in PMID 26199860, PMID 33541085; details: depending on the strain tested; cited from earlier work
[8] = screened at 5 µM, four technical replicates
[9] = B. duncani in vitro, 48 hours of incubation, PI staining, read-out: EC50
[10] = Babesia duncani, Erythrocyte, 48 h, B. duncani in vitro, 48 hours of incubation, PI staining, read-out: EC50
[11] = Babesia duncani, Erythrocyte, 48 h, given in Fig 2 and Fig 3B, nine-point serial dilution, 48 hours, experiments repeated twice, read-out: EC50 (95% CI)
[12] = Babesia duncani, Erythrocyte, given in Fig 2 and Fig 3B, nine-point serial dilution, 48 hours, experiments repeated twice
[13] = Babesia duncani, Erythrocyte, Table 1, B. duncani, two replicate 9-point dilution experiments, combined data, read-out: EC50
[14] = Babesia duncani, Erythrocyte, B. duncani, read-out: In vitro IC90
[15] = Babesia duncani, Erythrocyte, conversion of B. duncani IC90, read-out: Free plasma concentration equivalent to IC90
[16] = 12 mg given orally (PO) thrice weekly

## O=C1C(O)=C([C@H]2CC[C@H](c3ccc(Cl)cc3)CC2)C(=O)c2ccccc21 [Atovaquone]
Babesia duncani [1]; [8]
  inhibition at 5 µM: > 80%
Babesia duncani [2]; [9]
  EC50: 0.517 µM
Babesia duncani [2]; [10]
  EC50: 0.518 µM
Babesia duncani [2]; [11]
  EC50: 0.52 µM
Babesia duncani [2]; [12]
  EC90: 0.78 µM
Babesia duncani [3]; Babesia duncani, SYBR green assay, ref 9 (Abraham et al.)
  EC50: 0.5 µM
Babesia duncani [3]; later Babesia duncani testing, same lab group
  EC50: 0.072 µM

## CC[C@H]1OC(=O)[C@H](C)[C@@H](O[C@H]2C[C@@](C)(OC)[C@@H](O)[C@H](C)O2)[C@H](C)[C@@H](O[C@@H]2O[C@H](C)C[C@H](N(C)C)[C@H]2O)[C@](C)(O)C[C@@H](C)CN(C)[C@H](C)[C@@H](O)[C@]1(C)O [Azithromycin]
Babesia duncani [2]; [10]
  EC50: 12.4 µM
Babesia duncani [2]; [11]
  EC50: 12 µM
Babesia duncani [2]; [12]
  EC90: 28 µM

## O=C(/C=C/c1cccc(S(=O)(=O)Nc2ccccc2)c1)NO [Belinostat]
Babesia duncani [2]; [13]
  EC50: 0.15 µM
HCT8 cells
  TC50 HCT8: 90 µM

## CCC[C@@H]1C[C@@H](C(=O)N[C@@H]([C@H]2O[C@H](SC)[C@H](O)[C@@H](O)[C@H]2O)[C@H](C)Cl)N(C)C1 [Clindamycin]
Babesia duncani [2]; [11]
  EC50: > 50 µM
Babesia duncani [2]; dose-response assay, 48 hours
  Inhibition of B. duncani growth (in words): appeared not to inhibit at all

## O=C(/C=C/c1ccc(CN(CCO)CCc2c[nH]c3ccccc23)cc1)NO [Dacinostat]
B. divergens
  EC50: 0.112 µM
Babesia duncani [2]; [13]
  EC50: 0.023 µM
HCT8 cells
  TC50 HCT8: 150 µM

## Nc1ccccc1NC(=O)c1ccc(CNC(=O)OCc2cccnc2)cc1 [Entinostat]
Babesia duncani [2]; [13]
  EC50: 23 µM
HCT8 cells
  TC50 HCT8: 110 µM

## CCN(CC)Cc1ccc2cc(COC(=O)Nc3ccc(C(=O)NO)cc3)ccc2c1 [Givinostat]
Babesia duncani [2]; [13]
  EC50: 0.22 µM
HCT8 cells
  TC50 HCT8: 43 µM

## Nc1ccccc1NC(=O)c1ccc(CNc2nccc(-c3cccnc3)n2)cc1 [Mocetinostat]
Babesia duncani [2]; [13]
  EC50: 2.5 µM
HCT8 cells
  TC50 HCT8: 56 µM

## O=C(NO)c1cnc(N2C[C@@H]3[C@H](C2)[C@H]3NCc2ccc3cc(F)ccc3n2)nc1 [Nanatinostat]
[4]; single 20 mg oral dose
  Cmax: 186 ng/mL
Babesia duncani [2]; [9]
  EC50: 0.0238 µM
Babesia duncani [2]; [10]
  EC50: 0.023 µM
Babesia duncani [2]; [13]
  EC50: 0.024 µM
Babesia duncani [2]; [14]
  IC90: 0.064 µM
Babesia duncani [2]; [15]
  IC90: ~0.025 µg/mL
[5]
  Protocol defined maximum tolerated dose: 80 mg
HCT8 cells
  TC50 HCT8: 44 µM
[6]
  EC50 at 48 h: 56.2 µM

## Cc1[nH]c2ccccc2c1CCNCc1ccc(/C=C/C(=O)NO)cc1 [Panobinostat]
B. divergens
  EC50: 0.0272 µM
Solid tumor cells
  LD90: less than 500 nM
Liquid tumor cell lines
  LD90: less than 100 nM
Normal cells
  Caspase expression compared with control: no increase
Babesia duncani [1]
  inhibition at 5 µM: > 80%
Babesia duncani [2]; [10]
  EC50: 0.008 µM
Babesia duncani [2]; [13]
  EC50: 0.0084 µM
Babesia duncani [2]; [12]
  EC90: 0.037 µM
Malignant cells
  Increase in apoptotic signaling: 10- to 11 fold
[7]
  LD90: > 5 µM
P. falciparum
  EC50: 0.01 to 0.03 µM
HCT8 cells
  TC50 HCT8: 130 µM

## CCCCc1nc2cc(/C=C/C(=O)NO)ccc2n1CCN(CC)CC [Pracinostat]
Babesia duncani [2]; [13]
  EC50: 0.16 µM
HCT8 cells
  TC50 HCT8: 450 µM

## C=C[C@H]1C[N@@]2CC[C@H]1C[C@H]2[C@H](O)c1ccnc2ccc(OC)cc12 [Quinine]
Babesia duncani [2]; [10]
  EC50: 17.5 µM
Babesia duncani [2]; [11]
  EC50: 18 µM
Babesia duncani [2]; [12]
  EC90: 33 µM

## Cn1cc(CNCC2CCN(c3ncc(C(=O)NO)cn3)CC2)c2ccccc21 [Quisinostat]
[4]; [16]
  Area under the curve (AUC): 18 ng*H/mL
  Peak plasma concentration (Cmax): 1.9 ng/mL
B. divergens
  EC50: 0.0046 µM
Babesia duncani [2]; [13]
  EC50: 0.0045 µM
Babesia duncani [2]; [14]
  IC90: 0.01 µM
Babesia duncani [2]; [15]
  IC90: ~0.004 µg/mL
P. falciparum
  EC50: 0.005 to 0.007 µM
HCT8 cells
  TC50 HCT8: 170 µM

## COc1cc(Cc2cnc(N)nc2N)cc(OC)c1OC [Trimethoprim]
Babesia duncani [1]; [8]
  inhibition at 5 µM: > 80%
Babesia duncani [2]; [10]
  EC50: 2.7 µM
Babesia duncani [2]; [12]
  EC90: 4.5 µM

## O=C(CCCCCCC(=O)Nc1ccccc1)NO [Vorinostat]
HCT8 cells
  TC50 HCT8 (µM): No toxicity

## CC1(C)N=C(N)N=C(N)N1OCCCOc1cc(Cl)c(Cl)cc1Cl [WR99210]
Babesia duncani [2]; [9]
  EC50: 0.0083 µM and ~0.0083 µM
Babesia duncani [2]; given in Fig 2 and Fig 3B, nine-point serial dilution, 48 hours, experiments repeated twice
  EC90: 0.014 µM

## c1ccc2c(c1)[I+]c1ccccc1-2 [diphenylene iodonium chloride, Diphenyleneiodonium chloride]
Babesia duncani [1]; [8]
  inhibition at 5 µM: > 80%
Babesia duncani [2]; [10]
  EC50: 0.55 µM
Babesia duncani [2]; [12]
  EC90: 1.6 µM
